In patent US9155784B2, “Anti-TNF-α therapy for the mucopolysaccharidoses and other lysosomal disorders” (Icahn School of Medicine at Mount Sinai, priority 2011, dated 2015):

Legend:
Format in all cases: in vivo, rat
MPS VI rats [1] = assay: Gait (motility) analysis from paw prints, MPS VI rats
Method: The fore and hind paws of treated and control animals were stained with two different colors using non-toxic dye. The rats were trained to walk through a tunnel for two consecutive days, leaving their paw prints on blotting paper. On the third day several parameters were measured; distance between the left and right front paws in the longitudinal direction, the angle that was formed, and the distance between the front and hind right paws. For statistical analysis, group differences were assessed using multivariate analyses of variance (MANOVAs), followed by post hoc Bonferroni adjustments for all time points tested.

MPS VI rats [2] = assay: MicroCT analysis of bone micro-architecture (trabecular, cortical, robustness), MPS VI rats; conditions: mid-diaphyseal femur, vs untreated; fell short of statistical significance
Method: Three-dimensional images of the 37-week-old femora from age-matched normal, untreated and treated MPS VI rats were obtained using the eXplore Locus SP PreClinical Specimen microCT system (GE Healthcare; London, Ontario, Canada). Scans were performed at a voxel size of 14.4 μm. The scan protocol consisted of 3600 image acquisitions over a five hour scan (acquisition parameters: 80 kVp, 80 uA, 3 second exposure time [˜690], 0.010″ aluminum beam filter). A calibration phantom containing air, water, and hydroxyapatite (SB3: Gamex RMI, Middleton, Wis., USA) was included in all scans to adjust for the variability in X-ray attenuation inherent to independent scan sessions.
A representative mid-diaphyseal region of each femoral microCT image was isolated for analysis. […] The analysis region was not restricted by measured size to accommodate variances in bone length. […] The MicroView software was employed to quantify morphological traits.
The microCT images were further processed to quantify the tissue mineral density (TMD) of cortical bone within each sample. […] TMD was calculated by converting the gray-scale values of bone voxels from Hounsfield units (HU) to mineral values (mg/cc of HA) through the use of a calibration phantom containing air, water, and HA (Gamex RMI, Middleton, Wis., USA). […]

MPS VI rats [3] = assay: Trachea measurements and gross morphology, MPS VI rats
Method: Limb and trachea measurements were taken at the end of the study (37 weeks of age). The length of each femur was measured from the microCT images using the Microview software. The greater trochanter was used as the proximal margin of the femur, whereas the extent of the distal condyles was considered the distal margin. Thus, the length of each femur was computed roughly along the vertical axis of the bone. For validation, the physical femora and tibia lengths, as well as the width of the tracheas, was measured with a digital caliper. The mean of the two treatment groups (ERT and combined ERT/CNTO1081) were compared using standard student t test analysis.

TNF-α and RANKL = assay: Serum immunoassays of TNF-α and RANKL in treated MPS VI rats; conditions: MPS VI rats treated 8 months i.v., end of study (37 weeks), vs untreated MPS VI
Method: Naglazyme® (recombinant human N-acetylgalactosamine-4-sulfatase) was obtained from the BioMarin Pharmaceutical Inc., and CNTO1081 was from Centocor Ortho Biotech Inc. Twenty one-day-old (pre-symptomatic) MPS VI rats were divided into two groups (n=8/group), and subjected to either ERT or combined ERT/anti-TNF-α therapy. Animals receiving ERT alone were injected i.v. (tail vein) weekly with 1 mg/kg of Naglazyme®. Those receiving combined therapy also were injected i.v. with 3 mg/kg of CNTO10181 twice per week (every third day). Treatment was carried out for a total of 32 weeks. Serum was collected every 2 weeks for TNF-α and RANKL analysis (see infra). For each group, the treated animals were sacrificed 2 weeks after the last injection (37 weeks of age). Age-matched normal and untreated MPS VI rats were used as controls throughout the study.
Serum TNF-α and RANKL in age-matched normal, untreated and treated MPS VI rats were assessed by immunoassays using rat ultrasensitive Biosource Elisa kits (Invitrogen and ALPCO Diagnostics) according to the manufacturers' protocols. All assays were performed in triplicate.
Twenty one-day-old MPS VI rats were treated by either ERT (1 mg/kg once per week), or by a combined protocol of ERT and anti-TNF-α therapy (3 mg/kg, twice per week). Both were administered intravenously (tail vein). […]

With “recombinant human N-acetylgalactosamine-4-sulfatase [ERT]” the “distance for the front paw per step” value (MPS VI rats [1]; untreated MPS VI 2.8 cm) was 4.2 cm, the “distance the animals moved their rear paws” value (MPS VI rats [1]; untreated MPS VI 4.9 cm) was “not changed” and the “angle of the hind paw movement” value (MPS VI rats [1]; untreated MPS VI 60°) was 45 °. For the same substance, the “cortical area and relative cortical area” value (MPS VI rats [2]) was “greater”, the “tracheal abnormalities (thickened, collapsed tracheas), gross inspection” value (MPS VI rats [3]; 37 weeks of age) was “not altered” and the trachea cross-sectional area (MPS VI rats [3]; 37 weeks, untreated 2.9±0.6, normal 7.5±0.8) was 3.6±0.5 mm^2. The “serum RANKL level” value (TNF-α and RANKL) was “significantly reduced” and the “serum TNF-α level” value (TNF-α and RANKL) was “significantly reduced”.
